Measurements taken from patent publication US20060167057A1, “Compounds for the treatment of CNS and amyloid associated diseases” (priority 2004, published 2006).

Assays:
[1] = target: T1, L1 transport system (large neutral amino acid carrier, L1-system carrier) (Rattus norvegicus, UniProt Q63016); experiment: Competitive binding assay to the brain L1 transport system (L-[U-14C]phenylalanine on rat primary cerebrovascular endothelial cells)
T1 construct: functionality of their endogenous transporters such as the L1-system carrier; endogenous in cells; host or cells: rat primary cerebrovascular (brain microcapillary) endothelial cells, RBEC
T1 sequence (Q63016 whole entry): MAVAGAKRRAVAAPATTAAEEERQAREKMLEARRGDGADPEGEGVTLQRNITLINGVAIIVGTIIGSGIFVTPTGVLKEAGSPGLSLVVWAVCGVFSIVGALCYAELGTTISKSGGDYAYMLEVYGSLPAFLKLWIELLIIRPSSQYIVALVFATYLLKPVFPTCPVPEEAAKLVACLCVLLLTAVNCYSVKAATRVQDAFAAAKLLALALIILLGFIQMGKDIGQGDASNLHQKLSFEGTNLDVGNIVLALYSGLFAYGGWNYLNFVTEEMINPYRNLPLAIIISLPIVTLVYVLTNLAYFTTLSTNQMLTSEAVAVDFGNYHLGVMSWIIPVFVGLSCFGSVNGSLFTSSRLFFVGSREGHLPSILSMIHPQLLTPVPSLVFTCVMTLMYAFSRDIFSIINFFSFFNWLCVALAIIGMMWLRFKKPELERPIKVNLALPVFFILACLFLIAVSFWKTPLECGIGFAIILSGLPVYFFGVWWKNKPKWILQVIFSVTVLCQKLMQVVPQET
T1 sequence (Q794F9 whole entry partner): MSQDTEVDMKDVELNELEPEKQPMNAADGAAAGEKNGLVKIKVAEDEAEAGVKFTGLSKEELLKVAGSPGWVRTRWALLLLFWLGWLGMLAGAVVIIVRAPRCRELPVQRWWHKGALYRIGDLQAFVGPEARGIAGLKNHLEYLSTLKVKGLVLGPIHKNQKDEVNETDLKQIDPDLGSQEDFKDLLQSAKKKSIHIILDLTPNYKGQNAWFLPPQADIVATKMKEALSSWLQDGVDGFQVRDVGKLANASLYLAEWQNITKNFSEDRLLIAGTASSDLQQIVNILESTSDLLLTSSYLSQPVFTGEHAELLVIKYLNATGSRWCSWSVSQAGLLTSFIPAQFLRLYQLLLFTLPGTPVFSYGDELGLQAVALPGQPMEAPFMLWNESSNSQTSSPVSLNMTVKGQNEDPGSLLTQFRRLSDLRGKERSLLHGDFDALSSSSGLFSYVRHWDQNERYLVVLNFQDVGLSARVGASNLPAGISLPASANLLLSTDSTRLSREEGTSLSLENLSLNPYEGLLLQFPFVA
Procedure, shortened: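 Cells were primary cerebral microvascular endothelial cells from cortices of 24-day-old rats, isolated by collagenase/DNAse digestion, dextran separation and mesh filtration.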

HUVEC = experiment: Cellular toxicity assay on HUVEC (WST-1 viability); format: cell-based, human; details: 24 hours, <75% considered toxic
Procedure: Compound samples in PBS (without Ca^+2, Mg^+2)-glucose 3 mM-HEPES 10 mM—DMSO 1%, as prepared in Example 1, were thawed and left for at least 30 minutes at 20-23° C. before preparation of the following sub-dilutions for the compound toxicity assay: • 100 μL of stock compound solution were added to 900 μL PBSD-1 [diluted 1:10 for a final 1:10 dilution] • 100 μL (1/10 dilution above) were added to 900 μL PBSD-1 [diluted 1:10 for a final 1:100 dilution] Culture of HUVEC
Endothelial cells from human umbilical cord (HUV-EC-C or HUVEC) were purchased form American Type Culture Collection (ATCC, CRL-1730) and cultured according to the manufacturer's protocol. A 1-mL frozen aliquot of sub-cultured cells was thawed in a 37° C. water bath and centrifuged following addition of 5 mL of medium. After re-suspension in 5 mL medium, cells were seeded in a TC80 cm^2 flask pre-coated with 0.1% gelatin. Culture medium was replaced every 3-4 days and cells monitored until confluency was reached.
A sterile stock solution of 0.5 mM of camptothecin (Sigma) was prepared by dissolving a weighed amount of 0.0085 g in 50 mL of double distilled water at 37° C. in a water bath. The solution was vortexed, then filtered through a 0.22-μm filter unit and kept at 4° C. for the duration of the toxicity assays.
From the stock solution, concentrations of 60, 75, 80, 100, 150, 200 and 250 nM of camptothecin were prepared in culture diluent containing 1% DMSO.
HUVEC were cultured for 4 days in gelatin-coated 96-well plates, following seeding with 40 μL/well of a cellular suspension of 1×10^5 cells/mL. Culture media was replaced every 3-4 days of culture until confluency was reached.
On the day of the toxicity assay, the conditioned culture media was removed from the wells and 90 μL of culture medium containing 1% DMSO was distributed in the plate. A volume of 10 μL of the stock solution, 1:10 and 1:100 dilutions of the compounds in PBS-glucose-HEPES-DMSO 1% were added to the appropriate wells (100-μL total volume/well). A volume of 100 μL of camptothecin dilutions and culture medium containing 1% DMSO was also distributed into the plate. Cells were incubated at 37° C. of 24 hours and then 10 μL of the tetrazolium salt WST-1 solution were added to cells and incubated for an extra 90 minutes at 37° C. The absorbance that was associated to the cellular viability was measured at 450nm on the SpectraFluor Tecan reader, and the raw data processed.
The intrinsic cellular toxicity of the compounds was determined for each concentration of every compound on HUVEC. The viability percentage was assessed (OD sample/OD control) ×100% and any value <75% viability was considered toxic. The following table, Table 5, lists the few compounds that presented at least one toxic concentration.

Aβ40 = Aβ40 (Homo sapiens, UniProt P05067); experiment: Electrospray MS assay for binding to Aβ40; details: 100 μM compound, 20 μM Aβ40, pH 7.4
Chain of Aβ40 (P05067 672-711 limits assumed): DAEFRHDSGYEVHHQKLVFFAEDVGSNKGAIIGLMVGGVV
Source text: The ability of a therapeutic compound of the invention to inhibit an interaction between an amyloidogenic protein and a glycoprotein or proteoglycan constituent of a basement membrane can be assessed by an in vitro binding assay, such as that described in U.S. Pat. No. 5,164,295, the contents of which are hereby incorporated by reference. Alternatively, the ability of a compound to bind to an amyloidogenic protein or to inhibit the binding of a basement membrane constituent (e.g. HSPG) to an amyloidogenic protein (e.g. Aβ) can be measured using a mass spectrometry assay where soluble protein, e.g Aβ, IAPP, β2M is incubated with the compound. A compound which binds to, e.g Aβ, will induce a change in the mass spectrum of the protein. Exemplary protocols for a mass spectrometry assay employing Aβ and IAPP can be found in the Examples, the results of which are provided in Table 5. The protocol can readily be modified to adjust the sensitivity of the data, e.g., by adjusting the amount of protein and/or compound employed. Thus, e.g., binding might be detected for test compounds noted as not having detectable binding employing less sensitive test protocols.
The binding ability between the compounds synthesized in Example 4 and Aβ40 in an aqueous solution is tested. The binding ability is attributed semi-quantitatively from the intensities of peptide-compound complex peaks observed in the Electrospray Mass Spectrum.
In the MS assay for Aβ40, samples are prepared as aqueous solutions adding 20% ethanol if necessary to solubilize in water. The stock solution of the peptide contains 50 μm Aβ40. In a typical experiment, 100 μM of an exemplary compound as prepared in Example 4 and 20 μM of solubilized Aβ40 are used. The ratio of the compound: peptide is 5:1. The pH value of each sample is adjusted to 7.4 (±0.2) by addition of 0.1% aqueous sodium hydroxide. The solutions are then analyzed by electrospray ionization mass spectrometry using a Waters ZQ 4000 mass spectrometer. Samples are introduced by direct infusion at a flow-rate of 25 μL/min within 2 hr. after sample preparation. The source temperature is kept at 70° C. and the cone voltage is 20 V for all the analysis. Data are processed using Masslynx 3.5 software. Aβ 1-40 (M.W.=4329) alone at 20 μM is analyzed at pH 7.32 as a control. Sodium clusters, which are typical of this system at +3 and +4 at m/z […] regions, may be observed. The MS assay gives data on the ability of compounds to bind to soluble Aβ, whereas the ThT, EM and CD assays give data on inhibition of fibrillogenesis.
In Table 7, a blank box means that a value was not determined for that compound in that assay.

[2] = system: Apolipoprotein E-Aβ interaction; experiment: Apolipoprotein E-Aβ interaction assay; format: binding; details: 200 μM test compound, ApoE/Aβ alone = 100%
Procedure: The level of interaction between Apolipoprotein E and Aβ was measured for five inventive compounds to determine whether, under the specific conditions of the present example, the compounds would inhibit the interaction. Nunc-Immuno Maxisorp 96-well microtiter plates were coated with 1 μM HFIP-disaggregated Aβ in 0.1 M NaHCO3 pH 9.6 for 2 hours and 15 minutes at 37°, washed two times in TBS (100 mM Tris-HCl, pH 7.5, 150 mM NaCl), and wells were blocked with 1% fatty-acid free BSA in TBS overnight at 4°.
Test compounds were prepared in either TBS or DMSO at a final concentration of either 2 mM or 10 mM respectively. Recombinant ApoE (Fitzgerald Industries Int.) was prepared in 700 mM NH4HCO3 at a final concentration of 0.44 mg/mL to prevent monomer assembly and stored as aliquots at −20°. 3.41 μg/mL of purified ApoE was pre-incubated in the presence of 200 μM test compounds, all in triplicate, in 1% BSA/TBS in a 96-well transfer plate for one hour and then added to the Aβ-coated wells for an additional two hours with gentle shaking at 37° to allow ApoE/Aβ association. Plates were washed three times in TBS to remove excess ApoE and incubated first with 0.125 μg/mL mouse monoclonal anti-ApoE antibody (BD Bioscience) for 1 hour, washed and then incubated with 0.26 μg/mL horse-radish peroxidase conjugated goat anti-IgG antibody (Pierce) for 1 hour in 1% BSA/TBS-T (0.05% Tween-20). After washing, wells were incubated with Sure Blue™ TMB-1 peroxidase substrate (KPL) for 30 minutes. The reaction was stopped using 1N HCl. Absorbance values at 450 nm were measured using TECAN plate reader and reflect the amount of ApoE bound to Aβ in the wells. Data were expressed as a percentage of ApoE/Aβ complexes by arbitrarily setting ApoE/Aβ alone at 100%. All compounds were tested at least twice.

NC(Cc1cccc(CSc2nc3ccccc3o2)n1)C(=O)O (centres unmarked) [Compound 30]
Comparison with the Binding of Phenylalanine ([1]; 10^−4 M): 1 (0 < X < 10 Rank 1) | Comparison with the Binding of Phenylalanine ([1]; 10^−5 M): 2 (10 < X < 20 Rank 2) | Comparison with the Binding of Phenylalanine ([1]; 10^−6 M): 3 (X > 20 Rank 3) | Viability (%) (HUVEC; 10^−4 M): 110% | Viability (%) (HUVEC; 10^−5 M): 112% | Viability (%) (HUVEC; 10^−6 M): 8%

O=C(NC(Cc1cccc(CSc2nnc[nH]2)n1)C(=O)O)NC(c1ccccc1)c1ccccc1 (centres unmarked) [Compound 37]
Comparison with the Binding of Phenylalanine ([1]; 10^−4 M): 2 (10 < X < 20 Rank 2) | Comparison with the Binding of Phenylalanine ([1]; 10^−5 M): 3 (X > 20 Rank 3) | Comparison with the Binding of Phenylalanine ([1]; 10^−6 M): 2 (10 < X < 20 Rank 2) | Viability (%) (HUVEC; 10^−4 M): 94% | Viability (%) (HUVEC; 10^−5 M): 50% | Viability (%) (HUVEC; 10^−6 M): 87%

O=C(NC(Cc1cccc(CSc2ncnc3[nH]ncc23)n1)C(=O)O)NC(c1ccccc1)c1ccccc1 (centres unmarked) [Compound 65]
Viability (%) (HUVEC; 10^−4 M): 107% | Viability (%) (HUVEC; 10^−5 M): 68% | Viability (%) (HUVEC; 10^−6 M): 109%

O=C(O)C(Cc1cccc(CSc2nnc[nH]2)n1)NS(=O)(=O)c1ccc(F)cc1 (centres unmarked) [Compound 66]
Comparison with the Binding of Phenylalanine ([1]; 10^−4 M): 2 (10 < X < 20 Rank 2) | Comparison with the Binding of Phenylalanine ([1]; 10^−5 M): 3 (X > 20 Rank 3) | Comparison with the Binding of Phenylalanine ([1]; 10^−6 M): 0 (X < 0 Rank 0) | Viability (%) (HUVEC; 10^−4 M): 117% | Viability (%) (HUVEC; 10^−5 M): 114% | Viability (%) (HUVEC; 10^−6 M): 67%

N[C@@H](Cc1cccc(CS(=O)(=O)c2ncc[nH]2)c1)C(=O)O [drawing 505]
MS Results (Aβ 1-40 binding) (Aβ40): + (+ = Weak (25-50% of free peptide))

COc1ccc(-n2nnnc2SCc2cccc(C[C@H](N)C(=O)O)c2)cc1 [drawing 529]
Aβ-ApoE % Complex ([2]; first value of the cell): 98% | Aβ-ApoE % Complex ([2]; second value of the cell): 97%

NC(Cc1cccc(CSc2nnnn2-c2ccccc2)c1)C(=O)O (centres unmarked) [drawing 530]
Aβ-ApoE % Complex ([2]; first value of the cell): 107% | Aβ-ApoE % Complex ([2]; second value of the cell): 97%

N[C@@H](Cc1cccc(CSc2nnc(-c3ccccc3)[nH]2)c1)C(=O)O [drawing 531]
Aβ-ApoE % Complex ([2]; first value of the cell): 88% | Aβ-ApoE % Complex ([2]; second value of the cell): 94%

N[C@@H](Cc1cccc(CSc2nc3ccccc3[nH]2)n1)C(=O)O [drawing 532]
Aβ-ApoE % Complex ([2]; first value of the cell): 94% | Aβ-ApoE % Complex ([2]; second value of the cell): 112%

N[C@@H](Cc1cccc(CSc2nnc(-c3ccncc3)o2)c1)C(=O)O [drawing 533]
Aβ-ApoE % Complex ([2]; first value of the cell): 101% | Aβ-ApoE % Complex ([2]; second value of the cell): 94%
